Test results published in US20150329918A1, “JAGGED1 AS A MARKER AND THERAPEUTIC TARGET FOR BREAST CANCER BONE METASTASIS” (The Trustees of Princeton University, priority 2011, published 2015).

Assays:
[1] = tested on: SCP28 tumor cells cocultured with MC3T3-E1 osteoblasts; experiment: Osteoblast coculture tumor cell quantification by luciferase assay; type: cell-based, human; details: cocultured with MC3T3-E1; hIL-6 10 or 100 ng/ml; FIG. 14B
Description: MC3T3-E1 cells were seeded at 2×10^5 cells/well in 12-well plates. After confluence was achieved, luciferase/GFP-labeled (GFP+) control and JAG1 OE cells were added at 1×10^4 cells/well in triplicate and treated with DMSO or 1 μM MRK-003. Media supplemented with appropriate drugs were changed every 2 days. After 6 days the coculture was subjected to a luciferase assay to selectively quantify the number of tumor cells. These values were normalized against luciferase quantification of 12-well plates seeded with tumor cells alone.
For transfection experiments, MC3T3-E1 osteoblasts were seeded at 2×10^5 cells/well in 12-well plates and grown to 95% confluence. […] Following 6 days, the coculture was lysed and subjected to a luciferase assay to selectively quantify the number of tumor cells. For gene expression analysis, RNA from cocultures was collected in RLT lysis buffer, extracted with RNeasy mini kit (Qiagen), and subjected to quantitative RT-PCR.
(§1) For in vitro experiments, GSI-IX (Calbiochem) and TGFβ Receptor 1 (EMD Biosciences 616451) were dissolved in DMSO. […] RNA and protein were collected and analyzed for JAGGED1 expression as described above. […]

JAGGED1 = JAGGED1 mRNA and protein after TGFβ treatment of breast cancer cells in vitro; type: cell-based, human; details: several breast cancer cell lines; FIG. 5A
Description: SDS lysis buffer (0.05 mM Tris-HCl, 50 mM BME, 2% SDS, 0.1% Bromophenol blue, 10% glycerol) was used to collect protein from cultured cells. Heat denatured protein was then equally loaded, separated on an SDS-page gel, transferred onto a pure nitrocellulose membrane (BioRad), and blocked with either 5% milk or 5% BSA. Primary antibodies for immunoblotting included: goat anti-JAGGED1 (1:1000 dilution, sc-6011, Santa Cruz), rabbit anti-phosho-SMAD2 (1:1000 dilution, Ser465/467, Cell Signaling), and mouse anti-β-actin (1:4000 dilution, Abcam) for loading control. Membranes were incubated with horseradish peroxidase (HRP)-conjugated anti-mouse secondary antibody (1:2000 dilution, GE Healthcare) or anti-rabbit secondary antibody (1:2000 dilution, GE Healthcare) for 1 h and chemiluminescence signals were detected by ECL substrate (GE Healthcare).
as §1
RNA from in vitro cultured cells or flow cytometry-separated cells was collected in RLT lysis buffer and extracted with RNeasy mini kit (Qiagen). […] Quantitative RT-PCR was performed using Power Syber Green PCR Master Mix (Applied Biosystems) with the ABI Prism 7900HT thermocycler (Applied Biosystems) according to the manufacturer's protocol. […]

[2] = tested on: pre-osteoclast Raw 264.7 cells; experiment: Osteoclastogenesis coculture assay (TRAP staining); type: cell-based, mouse; details: 15-fold increase by JAG1 OE relative to controls; 1 μM MRK-003; FIG. 15A
Description: After seeding 5×10^4 control or JAG1 OE tumor cells/well into 12-well plates, murine pre-osteoclast Raw 264.7 (2×10^5 cells/well) or MOCP5 (5×10^5 cells/well) cells in media containing 30 ng/ml RANKL and DMSO or 1 μM MRK-003 were added the next day. Media were changed every 2 days. TRAP staining was performed on day 6 using a leukocyte acid phosphatase kit (Sigma). TRAP^+-multinucleated cells were scored as mature osteoclasts. The number of nuclei per osteoclast was quantified using TRAP-stained images. Mouse specific qRT-PCR primers were used to selectively quantify Raw264.7 osteoclast gene expression levels after 6 days of coculture (see Table 1 below).
For primary osteoclast coculture assays, bone marrow cells were flushed out from femora and tibiae of 4- to 6-week-old wild-type FVB mice and plated in basal culture medium overnight. The next day, nonadherent cells were added at 1×10^6/well to 12-well plates that were previously seeded with either control or JAG1 OE tumor cells supplemented with 50 ng/ml RANKL and 50 ng/ml M-CSF. Medium was changed every 3 days. TRAP staining and scoring were performed on days 10-12.

[3] = tested on: SCP2 and 1833 bone metastasis; experiment: Bone metastasis xenograft with JAG1 knockdown SCP2 and 1833 cells; type: in vivo, mouse
Description: (§2) For bone metastsis studies, 10^5 tumor cells were injected into the left cardiac ventricle of anesthetized female athymic Ncr-nu/nu or BALB/c mice. Development of metastases was monitored by BLI. Bioluminescence images were acquired with a Xenogen IVIS 200 Imaging System. Analysis was performed with Living Image software by measuring photon flux in the hindlimbs of mice. Data were normalized to the signal on day 7. Bone metastasis-free survival curves represent the time point at which each mouse developed bone metastasis by threshold BLI signals in the hindlimbs. For the orthotopic xenograft model, mammary fat pad injections and primary tumor size measurements were performed following the procedure described previously (Minn et al., 2005, which is incorporated herein by reference as if fully set forth).
After 48 hours viruses were collected, filtered and used to infect target cells in the presence of 5 μg/ml polybrene. The infected cells were selected with 1 μg/ml puromycin. […]
Hindlimb bones were excised from mice at the end point of each experiment, immediately after the last BLI time point. […] For quantitative analysis of lesion area, a 5× objective was used to focus on the tumor region of interest and images were acquired using the AxioCamICc3 camera set to an exposure of 100 ms. Lesions that were larger than the field of view were quantified by acquiring multiple images to encompass the entire lesion. The “spline” function of the AxioVision software was used to outline the region of interest and subsequently quantify the lesion area. Osteoclast number was assessed as multinucleated TRAP^+ cells along the tumor-bone interface and reported as number/mm of interface (Yin et al., 2003, which is incorporated herein by reference as if fully set forth). […]

[4] = tested on: SCP2 and 1833 tumor cells; experiment: Proliferation of JAG1 KD tumor cells in culture or as mammary tumors; design: species or system human
Description: as §2
After 48 hours viruses were collected, filtered and used to infect target cells in the presence of 5 μg/ml polybrene. The infected cells were selected with 1 μg/ml puromycin. For stable overexpression in the SCP28 human breast cancer cell line, human JAGGED1 cDNA was PCR amplified using the primer pair: 5′-[…]-3′ (Sense) [SEQ ID NO: 2] and 5′-[…]-3′ (Antisense) [SEQ ID NO: 3] and cloned into the retroviral expression vector pMSCVpuro using XhoI and EcoRI restriction sites (underlined=restriction sites, bold=human JAG1-specific sequences). […]

## rIL-6: Recombinant human IL-6 (R&D systems)
[1]
  proliferative ability of control tumor cells: significantly enhanced

## TGFβ: Recombinant human TGFβ1 (R&D systems)
JAGGED1
  Jagged1 expression upon TGFβ stimulation: potently upregulated

## rJAG1: Recombinant rat JAGGED1/Fc chimera (R&D systems)
[2]
  TRAP+ osteoclasts in JAG1 OE cocultures: confirmed

## C[C@H](NC(=O)Cc1cc(F)cc(F)c1)C(=O)N[C@H](C(=O)OC(C)(C)C)c1ccccc1 [GSI IX]
[2]
  TRAP+ osteoclasts in JAG1 OE cocultures: confirmed

B1: JAG1 KD: shRNA targeting CGTACAAGTAGTTCTGTAT of JAG1 (SEQ ID NO: 1; same as sense strand SEQ ID NO: 78, shRNA SEQ ID NO: 80) (nucleic acid)
chain: GATCTCCCGTACAAGTAGTTCTGTATTTCAAGAGAATACAGAACTACTTGTACGTTTTTGGAAAAGCTTTTCCAAAAACGTACAAGTAGTTCTGTATTCTCTTGAAATACAGAACTACTTGTACGGGA
[3]; SCP2 and 1833 with JAG1 shRNA
  onset of bone metastasis: delayed
  survival of mice: significantly extended
[3]; histological analysis
  decrease in the number of TRAP+ osteoclasts along the bone tumor interface: 2 fold
[4]
  ability of tumor cells to proliferate in culture or as mammary tumors in mice: did not alter
